Assay results from patent US20220339178A1, “COMPOSITIONS AND METHODS FOR COGNITIVE PROTECTION OF POLLINATORS AGAINST PESTICIDES” (priority 2019, published 2022).

Experiments:
[1] = test system: Honeybees (Apis mellifera scutellata); assay: Classical conditioning of the proboscis extension response (PER): learning, 24 h memory retention, latency; flavonoids vs imidacloprid; assay type: in vivo; settings: for memory retention, proportion difference relative to Control bees (Adjusted Wald test): conditioned PER after 24 h; for latency of response during learning acquisition relative to Control bees / learning scores relative to Control bees: honey bees; for learning scores relative to Control bees: 8 trials, score 0-7, quercetin 6.6 mM or rutin 1 mM once a day for three days, imidacloprid 1.16 nM 20 μL 1.5 h before training
Procedure: Honeybees (Apis mellifera scutellata) were captured from established hives at the Apiary of the Pontificia Universidad Javeriana (Bogota, Colombia). Foragers were collected while leaving to forage between 8:00 am and 10:00 am (Matsumoto et al., J Neurosci Methods. 211(1):159-67. 2012). Bees were maintained in individual plastic chambers under laboratory conditions (photoperiod followed seasonal pattern; relative humidity: 63%; temperature: 18° C.). Food was provided once a day in a volume of 20 μL and varied in composition according to experimental treatments.
Control (2M sugar water): fed once a day (20 μL) for three consecutive days;
Quercetin (6.6 mM quercetin (Sigma-Aldrich: Q4951)-sucrose-water with DMSO 1% (Sigma-Aldrich: D8418): fed once a day for three days;
Rutin (1 mM rutin (Sigma-Aldrich R5143)-sucrose-water with DMSO 1%: fed once a day for three days;
Imidacloprid (1.16 nM Imidacloprid (Bayer)-sucrose-water: fed as a single dose (20 μL) 1.5 h before training;
Quercetin-Imidacloprid: bees received the quercetin treatment (see above) and were fed Imidacloprid 1.5 h before training; and
Rutin-Imidacloprid: bees received the rutin treatment (see above) and were fed Imidacloprid 1.5 h before training.
Bees were trained using classical conditioning of the proboscis extension response (PER), a broadly used method to study learning and memory in bees. Briefly, bees received a soft current of clean air for 15 seconds to allow bees to accommodate. Then a soft current of 1-hexanol (Sigma-Aldrich: 471402) was injected for 10 seconds. Six seconds after injection of 1-hexanol, one of the antennae was stimulated with sucrose water (50% w/w), which leads to the reflexive extension of the proboscis, and the bee was allowed to drink for 4 seconds. Thus, the reward and the stimulus overlapped for four seconds. This sequence, recognized as a training trial, was repeated eight times. Time was determined using a metronome (2 Hz). Memory retention was tested 24 hours after the eight training trials. […] 12 bees were trained each session. Training was conducted by an experimenter blind to treatment.
Learning was assessed from the total number of conditioned responses across the eight trials. Thus, each bee received a learning score between 0-7 (by definition, bees cannot show a learned response at the first trial). After 24 h, memory retention was assessed as the response to the presentation of 1-hexanol without a sucrose reward. Latency of response was quantified as the time between the onset of 1-hexanol stimulation and the onset of a response that led to a full extension of proboscis. Only bees being responsive to sucrose water across all training trials and the memory retention test were considered for analyses. Learning scores were compared across treatments using a Mann-Whitney test as data were not normally distributed (Shapiro-Wilk W test for the hypothesis that the data is from a Normal distribution: P<0.05 for all treatments). Comparisons of the learning score of bees across all treatments relative to Control bees were conducted using the Steel method adjusted as one or two-tailed tests. Additional post hoc comparisons were performed between Imid and Quer+Imid bees and between Imid and Rut+Imid bees. Memory retention was compared across groups using an overall Chi-Square test and independent tests for planned comparisons were performed using adjusted Wald tests for proportions. In all cases error due to multiple comparisons was controlled using the False Discovery Rate one stage method and adjusted p-values (q-values) are presented (Benjamini & Hochberg, Journal of the Royal Statistical Society. Series B (Methodological), 57(1):289-300. 1995; Pike, N., Methods in Ecology and Evolution, 2(3):278-282. 2011). All analyses were conducted using JMP v.14.0 (SAS Institute Inc). […]

Drosophila melanogaster = assay: Motor activity (negative geotropic response) test in flies: rutin vs imidacloprid; assay type: in vivo
Procedure: Standard methods were relied on to test motor activity and motor impairments in Drosophila melanogaster (Jimenez-Del-Rio et al. 2010. Neurochem Res 35:227-238). The method relies on the negative geotropic response (i.e. preference to walk up when standing on a wall) of insects. Four-day-old (post eclosion) D. melanogaster females were randomly assigned to one of four treatments: Control (fed on 5% sugar-water), Rutin 0.1 (fed on a solution 0.1 μM rutin in 5% sugar-water), Rutin 1 (fed on a solution 1 μM rutin in 5% sugar-water), Rutin 10 (fed on a solution 10 uM rutin in 5% sugar-water). After three days flies from each group were randomly assigned to one of two treatments: 5% sugar-water or 0.1 μM imid in 5% sugar-water. Thus, flies were in one of eight treatments: Control, Imid, Rut 0.1, Rut 0.1+Imid, Rut 1, Rut 1+Imid, Rut 10, Rut 10+Imid. Flies were exposed to their specific treatment for 22 h.
Following standard methods, flies were transferred to a clean vial and a threshold of 5 cm from the bottom was set on the vial. The bottom of the vial was knocked on the table to assure all flies were moved to the bottom. The number of flies that crossed the threshold within 6 seconds were counted. Data were analyzed using a Chi-square with specific predictions (one-tail tests) for planned comparisons. Error associated with multiple comparisons was corrected using the False Discovery Rate-method (two stage sharpen method).

Row | SMILES | odds of remembering for Control bees relative to Imid bees ([1]; 24 h retention) | probability of exhibiting a conditioned PER after 24 h relative to Control bees ([1]; 24 h retention) | memory retention, proportion difference relative to Control bees (Adjusted Wald test) [1] | latency of response during learning acquisition relative to Control bees [1] | learning scores relative to Control bees [1] | bees exhibiting a conditioned PER after 24 h ([1]; retention test 24 h after training) | motor performance relative to flies in the control group (Drosophila melanogaster; 0.1 μM imid in 5% sugar-water for 22 h, flies crossing 5 cm threshold within 6 seconds) | motor performance relative to flies prophylactically receiving 0.1 μM rutin (Drosophila melanogaster; comparator rutin 0.1 μM then imid) | motor performance relative to flies prophylactically receiving 1 NM rutin (Drosophila melanogaster; comparator rutin 1 μM then imid) | motor performance relative to flies prophylactically receiving 10 μM rutin (Drosophila melanogaster; comparator rutin 10 μM then imid) | learning scores relative to bees in the Imid group ([1]; honey bees prophylactically fed flavonoid for three days, then imidacloprid 1.5 h before training) | protection against imidacloprid neuromotor impairment (Drosophila melanogaster; flies fed rutin 0.1, 1 or 10 μM for three days before 0.1 μM imid)
1 | O=[N+]([O-])NC1=NCCN1Cc1ccc(Cl)nc1 [Imidacloprid] | 9.1 times | significantly lower | 0.49 | not significantly different from Control | significantly lower | 20% | lower performance | significantly lower | significantly lower | significantly lower | – | –
2 | C[C@@H]1O[C@@H](OC[C@H]2O[C@@H](Oc3c(-c4ccc(O)c(O)c4)oc4cc(O)cc(O)c4c3=O)[C@H](O)[C@@H](O)[C@@H]2O)[C@H](O)[C@H](O)[C@H]1O [Rutin] | – | – | −0.14 | not significantly different from Control | significantly higher learning scores | – | – | – | – | – | significantly higher learning scores | protected against this impairment
